From patent US20160362408A1 (Bayer Pharma Aktiengesellschaft, priority 2013, published 2016)
Counter-ions that a name gives are not always drawn.

These compounds were tested against T1, recombinant guanylate cyclase reporter cell line (Rattus norvegicus, UniProt P19686+P20595) (assay: Effect on a recombinant guanylate cyclase reporter cell line). Conditions: MEC = minimum effective concentration; in some cases mean values for individual determinations.
T1 construct: expressed in transfected cells
T1 sequence (P19686 1-690): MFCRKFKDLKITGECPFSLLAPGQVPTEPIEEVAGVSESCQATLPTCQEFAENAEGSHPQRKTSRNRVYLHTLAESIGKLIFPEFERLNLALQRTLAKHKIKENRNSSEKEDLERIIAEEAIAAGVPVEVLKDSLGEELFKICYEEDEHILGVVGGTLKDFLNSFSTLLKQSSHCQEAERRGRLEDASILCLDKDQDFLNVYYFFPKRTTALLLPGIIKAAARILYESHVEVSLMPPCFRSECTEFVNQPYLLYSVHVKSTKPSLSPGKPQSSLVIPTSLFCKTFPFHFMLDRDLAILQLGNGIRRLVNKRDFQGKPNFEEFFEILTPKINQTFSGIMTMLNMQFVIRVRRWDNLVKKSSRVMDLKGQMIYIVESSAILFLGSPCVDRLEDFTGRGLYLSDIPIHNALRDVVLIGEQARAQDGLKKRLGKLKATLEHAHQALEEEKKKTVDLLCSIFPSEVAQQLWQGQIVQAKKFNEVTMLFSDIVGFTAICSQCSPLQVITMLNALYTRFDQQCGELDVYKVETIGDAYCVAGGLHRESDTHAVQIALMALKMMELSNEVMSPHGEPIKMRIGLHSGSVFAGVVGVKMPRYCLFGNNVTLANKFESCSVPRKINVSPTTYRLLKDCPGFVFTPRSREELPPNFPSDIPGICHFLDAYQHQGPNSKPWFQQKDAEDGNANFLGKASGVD
T1 sequence (P20595 1-619): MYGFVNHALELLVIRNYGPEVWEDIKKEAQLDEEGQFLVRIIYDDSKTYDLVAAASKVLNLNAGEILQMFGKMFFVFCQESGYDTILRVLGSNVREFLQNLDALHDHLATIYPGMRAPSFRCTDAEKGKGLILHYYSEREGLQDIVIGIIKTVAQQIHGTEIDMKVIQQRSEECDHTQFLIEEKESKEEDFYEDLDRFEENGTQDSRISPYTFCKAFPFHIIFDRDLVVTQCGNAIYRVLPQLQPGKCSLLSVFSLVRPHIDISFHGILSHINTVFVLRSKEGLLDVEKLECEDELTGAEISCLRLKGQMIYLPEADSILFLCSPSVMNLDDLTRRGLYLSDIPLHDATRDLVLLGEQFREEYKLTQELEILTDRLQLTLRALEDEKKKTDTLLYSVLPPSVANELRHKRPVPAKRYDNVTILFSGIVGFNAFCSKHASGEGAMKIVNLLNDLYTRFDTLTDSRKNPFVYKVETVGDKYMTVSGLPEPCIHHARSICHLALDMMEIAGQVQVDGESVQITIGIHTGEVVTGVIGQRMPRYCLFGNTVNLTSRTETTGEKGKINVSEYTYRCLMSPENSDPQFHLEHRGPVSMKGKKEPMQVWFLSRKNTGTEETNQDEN
Type: cell-based
How it was run: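 Compounds tested in a recombinant guanylate cyclase reporter cell line per a published method. Potency expressed as minimum effective concentration (MEC), sometimes as mean of individual determinations.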

Compound	MEC
Cc1nc2c(OCc3c(F)cccc3F)cccn2c1C(=O)Nc1n[nH]c2ccc(F)cc12 [Example 115, 8-[(2,6-Difluorobenzyl)oxy]-N-(5-fluoro-1H-indazol-3-yl)-2-methylimidazo[1,2-a]pyridine-3-carboxamide]	1.0 µM
Cc1nc2c(OCc3c(F)cccc3F)cccn2c1C(=O)Nc1n[nH]c2ccc(C(F)(F)F)cc12 [Example 114, 8-[(2,6-Difluorobenzyl)oxy]-2-methyl-N-[5-(trifluoromethyl)-1H-indazol-3-yl]imidazo[1,2-a]pyridine-3-carboxamide]	0.3 µM
Cc1nc2c(OCc3c(F)cccc3F)cc(Cl)cn2c1C(=O)Nc1cnn(CCF)c1 [Example 141, 6-chloro-8-[(2,6-difluorobenzyl)oxy]-N-[1-(2-fluoroethyl)-1H-pyrazol-4-yl]-2-methylimidazo[1,2-a]pyridine-3-carboxamide]	1.0 µM
Cc1nc2c(OCc3c(F)cccc3F)cccn2c1C(=O)Nc1cc(F)cc(F)c1N [Example 143, N-(2-Amino-3,5-difluorophenyl)-8-[(2,6-difluorobenzyl)oxy]-2-methylimidazo[1,2-a]pyridine-3-carboxamide]	0.3 µM
Cc1nc2c(OCc3c(F)cccc3F)cccn2c1C(=O)Nc1ccc(N2CCNCC2)c(C(F)(F)F)c1 [Example 107, 8-[(2,6-difluorobenzyl)oxy]-2-methyl-N-[4-(piperazin-1-yl)-3-(trifluoromethyl)phenyl]imidazo[1,2-a]pyridine-3-carboxamide]	1.0 µM
Cc1nc2c(OCc3c(F)cccc3F)cccn2c1C(=O)Nc1c[nH]c2ccccc12 [Example 2]	0.1 µM

Other lines, results leading:

MEC	Compound
0.3 µM	Cc1nc2c(OCc3c(F)cccc3F)cccn2c1C(=O)Nc1cccc2cccc(Cl)c12 [Example 60, N-(8-Chloronaphthalen-1-yl)-8-[(2,6-difluorobenzyl)oxy]-2-methylimidazo[1,2-a]pyridine-3-carboxamide trifluoroacetate]
0.3 µM	Cc1nc2c(OCc3c(F)cccc3F)cccn2c1C(=O)Nc1cccc2cnccc12 [Example 67]
1.0 µM	Cc1nn(CC(F)(F)F)c(C)c1NC(=O)c1c(C)nc2c(OCc3c(F)cccc3F)cccn12 [Example 32, 8-[(2,6-difluorobenzyl)oxy]-N-[3,5-dimethyl-1-(2,2,2-trifluoroethyl)-1H-pyrazol-4-yl]-2-methylimidazo[1,2-a]pyridine-3-carboxamide]
0.1 µM	Cc1nc2c(OCc3c(F)cccc3F)cccn2c1C(=O)Nc1cccc2ccccc12 [Example 56, 8-[(2,6-difluorobenzyl)oxy]-2-methyl-N-(naphthalen-1-yl)imidazo[1,2-a]pyridine-3-carboxamide]
